Source: patent US20110086759A1, “CHEMICAL COMPOUNDS” (SYNGENTA CROP PROTECTION, INC., priority 2007, published 2011)

What was measured:
Assay type in all cases: in vivo
[1] = system: Alopecurus myosuroides (ALOMY); assay: Pre-emergence biological efficacy, glasshouse pot test; settings: 312 h, evaluated after 13 days (100=total damage; 0=no damage), read-out: Percentage damage ALOMY; for pest or weed control at 1000 g/ha: pre-emergence, 1,000 g/ha
Method in brief: (§1)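 Glasshouse pot test: spray on soil one day after sowing, 1000 or 250 g/ha. Conditions 24/16 °C day/night, 14 h light, 65% humidity. Plant damage scored 0–100 at 13 days.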

[2] = system: Amaranthus retoflexus (AMARE); assay: as above; settings: Amaranthus retroflexus, 312 h, evaluated after 13 days (100=total damage; 0=no damage), read-out: Percentage damage AMARE; for pest or weed control at 1000 g/ha: pre-emergence, 1,000 g/ha
Method in brief: as §1

[3] = system: Echinochloa crus-galli (ECHCG); assay: as above; settings: 312 h, evaluated after 13 days (100=total damage; 0=no damage), read-out: Percentage damage ECHCG; for pest or weed control at 1000 g/ha: pre-emergence, 1,000 g/ha
Method in brief: as §1

[4] = system: Ipomea hederaceae (IPOHE); assay: as above; settings: Ipomoea hederacea, 312 h, evaluated after 13 days (100=total damage; 0=no damage), read-out: Percentage damage IPOHE; for pest or weed control at 1000 g/ha: pre-emergence, 1,000 g/ha
Method in brief: as §1

Setaria faberi (SETFA) [5] = assay: as above; settings: 312 h, evaluated after 13 days (100=total damage; 0=no damage), read-out: Percentage damage SETFA; for pest or weed control at 1000 g/ha: pre-emergence, 1,000 g/ha
Method in brief: as §1

Solanum nigrum (SOLNI) [6] = assay: as above; settings: 312 h, evaluated after 13 days (100=total damage; 0=no damage), read-out: Percentage damage SOLNI; for pest or weed control at 1000 g/ha: pre-emergence, 1,000 g/ha
Method in brief: as §1

[7] = system: Alopecurus myosuroides (ALOMY); assay: Post-emergence biological efficacy, glasshouse pot test; settings: 312 h, evaluated after 13 days (100=total damage; 0=no damage), read-out: Percentage damage caused to weed species, ALOMY; for pest or weed control at 1000 g/ha: post-emergence, 1,000 g/ha
Method in brief: (§2)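 Pot-grown weeds were sprayed 8 days after sowing with test compound in acetone/water (50:50) with 0.5% Tween 20 at 1000 or 250 g/ha. Glasshouse at 24/16° C day/night, 14 h light, 65% humidity. Damage scored 0-100 (100 = total damage) after 13 days.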

[8] = system: Amaranthus retoflexus (AMARE); assay: as above; settings: Amaranthus retroflexus, 312 h, evaluated after 13 days (100=total damage; 0=no damage), read-out: Percentage damage caused to weed species, AMARE; for pest or weed control at 1000 g/ha: post-emergence, 1,000 g/ha
Method in brief: as §2

[9] = system: Echinochloa crus-galli (ECHCG); assay: as above; settings: 312 h, evaluated after 13 days (100=total damage; 0=no damage), read-out: Percentage damage caused to weed species, ECHCG; for pest or weed control at 1000 g/ha: post-emergence, 1,000 g/ha
Method in brief: as §2

[10] = system: Ipomea hederaceae (IPOHE); assay: as above; settings: Ipomoea hederacea, 312 h, evaluated after 13 days (100=total damage; 0=no damage), read-out: Percentage damage caused to weed species, IPOHE; for pest or weed control at 1000 g/ha: post-emergence, 1,000 g/ha
Method in brief: as §2

Setaria faberi (SETFA) [11] = assay: as above; settings: 312 h, evaluated after 13 days (100=total damage; 0=no damage), read-out: Percentage damage caused to weed species, SETFA; for pest or weed control at 1000 g/ha: post-emergence, 1,000 g/ha
Method in brief: as §2

Solanum nigrum (SOLNI) [12] = assay: as above; settings: 312 h, evaluated after 13 days (100=total damage; 0=no damage), read-out: Percentage damage caused to weed species, SOLNI; for pest or weed control at 1000 g/ha: post-emergence, 1,000 g/ha
Method in brief: as §2

SMILES | pest or weed control at 1000 g/ha [1] [%] | pest or weed control at 1000 g/ha [2] [%] | pest or weed control at 1000 g/ha [3] [%] | pest or weed control at 1000 g/ha [4] [%] | pest or weed control at 1000 g/ha (Setaria faberi (SETFA) [5]) [%] | pest or weed control at 1000 g/ha (Solanum nigrum (SOLNI) [6]) [%] | pest or weed control at 1000 g/ha [7] [%] | pest or weed control at 1000 g/ha [8] [%] | pest or weed control at 1000 g/ha [9] [%] | pest or weed control at 1000 g/ha [10] [%] | pest or weed control at 1000 g/ha (Setaria faberi (SETFA) [11]) [%] | pest or weed control at 1000 g/ha (Solanum nigrum (SOLNI) [12]) [%] | other results
COC(=O)c1nc(C2CC2)nc(NCc2ccccc2Br)c1Cl [Compound 4-67, 4-(2-Bromophenyl-methylamino)-5-chloro-2-cyclopropyl-6-methoxycarbonyl-pyrimidine] | – | – | – | – | – | – | – | – | – | – | – | – | pest or weed control at 250 g/ha ([1]; pre-emergence, 250 g/ha): 0%; pest or weed control at 250 g/ha ([2]; pre-emergence, 250 g/ha): 40%; pest or weed control at 250 g/ha ([3]; pre-emergence, 250 g/ha): 0%; pest or weed control at 250 g/ha ([4]; pre-emergence, 250 g/ha): 0%; pest or weed control at 250 g/ha (Setaria faberi (SETFA) [5]; pre-emergence, 250 g/ha): 0%; pest or weed control at 250 g/ha (Solanum nigrum (SOLNI) [6]; pre-emergence, 250 g/ha): 20%; pest or weed control at 250 g/ha ([7]; post-emergence, 250 g/ha): 20%; pest or weed control at 250 g/ha ([8]; post-emergence, 250 g/ha): 90%; pest or weed control at 250 g/ha ([9]; post-emergence, 250 g/ha): 50%; pest or weed control at 250 g/ha ([10]; post-emergence, 250 g/ha): 80%; pest or weed control at 250 g/ha (Setaria faberi (SETFA) [11]; post-emergence, 250 g/ha): 70%; pest or weed control at 250 g/ha (Solanum nigrum (SOLNI) [12]; post-emergence, 250 g/ha): 90%
COC(=O)c1nc(C2CC2)nc(NCc2cccc(Br)c2)c1Cl [Compound 4-68, 4-(3-Bromophenyl-methylamino)5-chloro-2-cyclopropyl-6-methoxycarbonyl-pyrimidine] | 10 | 50 | 10 | 60 | 10 | 20 | 20 | 100 | 60 | 100 | 90 | 90 | –
COC(=O)c1nc(C2CC2)nc(NCc2cccc(I)c2)c1Cl [Compound 4-70, 5-Chloro-2-cyclopropyl-4-(3-iodophenylmethyl-amino)-6-methoxy-carbonylpyrimidine] | 10 | 40 | 30 | 60 | 20 | 30 | 20 | 100 | 70 | 100 | 90 | 100 | –
COC(=O)c1nc(C2CC2)nc(NCc2ccccc2C)c1Cl [Compound 4-71, 5-Chloro-2-cyclopropyl-6-methoxycarbonyl-4-(2-methylphenyl-methylamino)-pyrimidine] | 20 | 90 | 20 | 70 | 20 | 20 | 20 | 100 | 60 | 100 | 80 | 90 | –
COC(=O)c1nc(C2CC2)nc(NCc2cccc(C)c2)c1Cl [Compound 4-72, 5-Chloro-2-cyclopropyl-6-methoxycarbonyl-4-(3-methylphenyl-methylamino)-pyrimidine] | 10 | 60 | 40 | 40 | 10 | 40 | 10 | 100 | 50 | 100 | 30 | 100 | –
COC(=O)c1nc(C2CC2)nc(NCc2ccc(C)cc2)c1Cl [Compound 4-73, 5-Chloro-2-cyclopropyl-6-methoxycarbonyl-4-(4-methylphenyl-methylamino)-pyrimidine] | 10 | 70 | 30 | 80 | 20 | 60 | 20 | 100 | 60 | 100 | 80 | 100 | –
COC(=O)c1nc(C2CC2)nc(NCc2ccc(C(C)C)cc2)c1Cl [Compound 4-74, 5-Chloro-2-cyclopropyl-4-(4-isopropylphenyl-methlamino)-6-methoxycarbonyl-pyrimidine] | 10 | 80 | 30 | 60 | 10 | 70 | 20 | 90 | 70 | 100 | 80 | 100 | –
COC(=O)c1nc(C2CC2)nc(NCc2ccccc2C(F)(F)F)c1Cl [Compound 4-75, 5-Chloro-2-cyclopropyl-6-methoxycarbonyl-4-(2-trifluoromethyl-phenylmethyl-amino)-pyrimidine] | 10 | 50 | 0 | 20 | 10 | 30 | 20 | 100 | 50 | 100 | 90 | 100 | –
COC(=O)c1nc(C2CC2)nc(NCc2cccc(C(F)(F)F)c2)c1Cl [Compound 4-76, 5-Chloro-2-cyclopropyl-6-methoxycarbonyl-4-(3-trifluoromethyl-phenylmethyl-amino)pyrimidine] | 40 | 60 | 60 | 70 | 50 | 60 | 40 | 100 | 70 | 100 | 90 | 100 | –
